pIC50: −log10 of the molar value.
Experiments:
[1] = system: phospho-ERK in GP2D (KRAS-G12D) cells; test: pERK In Cell Western (ICW) assay (Method B), GP2D; type: cell-based
Procedure, shortened: (§1)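 Per well, infrared pERK immunofluorescence was divided by DRAQ5 nuclear signal following 3 h treatment with a 9-point, ½-log compound series; seeding was 5,000 (AGS) or 10,000 (GP2D, SW620) cells per well. Percent-of-blank data were fitted to a four-parameter model for IC50.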

[2] = system: phospho-ERK in SW620 (KRAS-G12V) cells; test: pERK In Cell Western (ICW) assay (Method B), SW620; type: cell-based
Procedure, shortened: as §1

[3] = target: GST-tagged KRAS-G12V (2-169) (Homo sapiens, UniProt P01116, G12V); test: Nucleotide exchange assay (NEA), SOS-mediated, HTRF, KRAS G12V; type: biochemical; settings: Table 4; IC50 extracted at 90 min; 80 nM SOS
GST-tagged KRAS-G12V (2-169), sequence (P01116 2-169 isoform P01116-2 G12V): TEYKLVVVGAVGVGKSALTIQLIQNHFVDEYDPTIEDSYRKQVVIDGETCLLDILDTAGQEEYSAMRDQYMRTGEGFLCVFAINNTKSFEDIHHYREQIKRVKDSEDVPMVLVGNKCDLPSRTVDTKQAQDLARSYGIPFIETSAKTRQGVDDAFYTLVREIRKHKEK
Procedure, shortened: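 Exchange onto fluorescent GTP-DY-647P1 (150 nM final) catalysed by 80 nM SOS1cat was followed by Tb-anti-GST HTRF at RT for up to 90 min, after 1 h compound pre-incubation with 0.25 nM GST-tagged KRAS-G12V (2-169), pH 7.3. DMSO = 0%, no-SOS blank = 100%; 4-parameter IC50 taken at 90 min.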

[4] = target: GST-tagged KRAS-G12D (2-169) (Homo sapiens, UniProt P01116, G12D); test: Nucleotide exchange assay (NEA), SOS-mediated, HTRF, KRAS G12D; type: biochemical; settings: Table 4; IC50 extracted at 30 min; 20 nM SOScat; read-out: NEA G12D IC50
GST-tagged KRAS-G12D (2-169), sequence (P01116 2-169 isoform P01116-2 G12D): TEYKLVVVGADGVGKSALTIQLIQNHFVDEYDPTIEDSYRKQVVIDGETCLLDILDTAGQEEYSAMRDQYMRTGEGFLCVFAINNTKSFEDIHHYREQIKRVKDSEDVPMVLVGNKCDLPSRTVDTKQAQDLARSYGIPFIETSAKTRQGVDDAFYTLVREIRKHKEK
Procedure, shortened: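 SOS1cat-driven loading of fluorescent GTP-DY-647P1 (150 nM) onto GST-KRAS-G12D (2-169, 0.25 nM) read by time-resolved FRET; SOScat 20 nM, compound preincubated with KRAS 1 h at RT. Signal blanked to no-SOS reactions, normalized to DMSO; IC50 fitted from the 30-min read.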

[5] = Homo sapiens, SW-620, 3 h, Table 4

Row | SMILES | pIC50 ([1]; GP2d, 3 h, Table 4) | pIC50 [2, 5] | pIC50 [3] | pIC50 [4] | pIC50 ([1]; Table 4, 3 hours) | pIC50 ([2]; Table 4, 3 hours)
1 | C[C@@]1(O)CCCN(c2nc(OCC3(CN4CCOCC4)CC3)nc(N3CC4(C3)c3c(sc(N)c3C#N)C[C@H]4F)n2)C1 [Compound 70, (5R)-2-amino-5-fluoro-1′-[4-[(3R)-3-hydroxy-3-methyl-1-piperidyl]-6-[[1-(morpholinomethyl)cyclopropyl]methoxy]-1,3,5-triazin-2-yl]spiro[5,6-dihydrocyclopenta[b]thiophene-4,3′-azetidine]-3-carbonitrile] | 6.00 to 7.00 | 6.00 to 7.00 | > 8.00 | > 8.00 | – | –
2 | CCN(c1nc(OC[C@@]23CCCN2C[C@H](F)C3)nc(N2CC3(C2)SCc2sc(N)c(C#N)c23)n1)C(C)c1nonc1N (stereo partly drawn) [Compound 171, 2-amino-1′-[4-[1-(4-amino-1,2,5-oxadiazol-3-yl)ethyl-ethyl-amino]-6-[[(2R,8S)-2-fluoro-1,2,3,5,6,7-hexahydropyrrolizin-8-yl]methoxy]-1,3,5-triazin-2-yl]spiro[6H-thieno[2,3-c]thiophene-4,3′-azetidine]-3-carbonitrile] | 7.00 to 8.00 | > 8.00 | > 8.00 | 7.00 to 8.00 | – | –
3 | CC(c1cccnc1N)N(C)c1nc(OC[C@@]23CCCN2C[C@H](F)C3)nc(N2CC3(C2)SCc2sc(N)c(C#N)c23)n1 (single isomer, unassigned) [Compound 120B, 2-amino-1′-[4-[[(1*)-1-(2-amino-3-pyridyl)ethyl]-methyl-amino]-6-[[(2R,8S)-2-fluoro-1,2,3,5,6,7-hexahydropyrrolizin-8-yl]methoxy]-1,3,5-triazin-2-yl]spiro[6H-thieno[3,4-b]thiophene-4,3′-azetidine]-3-carbonitrile] | – | – | > 8.00 | > 8.00 | 7.00 to 8.00 | 7.00 to 8.00
4 | N#CCC1(O)CCCN(c2nc(OC[C@@]34CCCN3C[C@H](F)C4)nc(N3CC4(CCc5sc(N)c(C#N)c54)C3)n2)C1 (stereo partly drawn) [Compound 79, 2-amino-1′-[4-[3-(cyanomethyl)-3-hydroxy-1-piperidyl]-6-[[(2R,8S)-2-fluoro-1,2,3,5,6,7-hexahydropyrrolizin-8-yl]methoxy]-1,3,5-triazin-2-yl]spiro[5,6-dihydrocyclopenta[b]thiophene-4,3′-azetidine]-3-carbonitrile; 2,2,2-trifluoroacetic acid] | 6.00 to 7.00 | 4.70 to 6.00 | > 8.00 | 7.00 to 8.00 | – | –
5 | CC(c1cccnc1N)N(C)c1nc(OC[C@@]23CCCN2C[C@H](F)C3)nc(N2CC3(CCc4sc(N)c(C#N)c43)C2)n1 (single isomer, unassigned) [Compound 100A, 2-amino-1′-[4-[[(1*)-1-(2-amino-3-pyridyl)ethyl]-methyl-amino]-6-[[(2R,8S)-2-fluoro-1,2,3,5,6,7-hexahydropyrrolizin-8-yl]methoxy]-1,3,5-triazin-2-yl]spiro[5,6-dihydrocyclopenta[b]thiophene-4,3′-azetidine]-3-carbonitrile] | – | > 8.00 | > 8.00 | > 8.00 | 7.00 to 8.00 | –
6 | CC(c1ccn[nH]1)N(C)c1nc(OC[C@@]23CCCN2C[C@H](F)C3)nc(N2CC3(CCc4sc(N)c(C#N)c43)C2)n1 (stereo partly drawn) [Compound 129, 2-amino-1′-[4-[methyl-[1-(1H-pyrazol-5-yl)ethyl]amino]-6-[[(2R,8S)-2-fluoro-1,2,3,5,6,7-hexahydropyrrolizin-8-yl]methoxy]-1,3,5-triazin-2-yl]spiro[5,6-dihydrocyclopenta[b]thiophene-4,3′-azetidine]-3-carbonitrile] | 4.70 to 6.00 | 4.70 to 6.00 | > 8.00 | 6.00 to 7.00 | – | –
7 | CC(c1ccns1)N(C)c1nc(OC[C@@]23CCCN2C[C@H](F)C3)nc(N2CC3(CCc4sc(N)c(C#N)c43)C2)n1 (stereo partly drawn) [Compound 158, 2-amino-1′-[4-[[(2R,8S)-2-fluoro-1,2,3,5,6,7-hexahydropyrrolizin-8-yl]methoxy]-6-[1-isothiazol-5-ylethyl(methyl)amino]-1,3,5-triazin-2-yl]spiro[5,6-dihydrocyclopenta[b]thiophene-4,3′-azetidine]-3-carbonitrile] | 4.70 to 6.00 | 6.00 to 7.00 | > 8.00 | 6.00 to 7.00 | – | –
8 | N#Cc1c(N)sc2c1C1(CC2)CN(c2nc(OC[C@@]34CCCN3C[C@H](F)C4)nc(N3CCOCC(C#N)C3)n2)C1 (single isomer, unassigned) [Compound 91A, (6*)-4-[4-(2-amino-3-cyano-spiro[5,6-dihydrocyclopenta[b]thiophene-4,3′-azetidine]-1′-yl)-6-[[(2R,8S)-2-fluoro-1,2,3,5,6,7-hexahydropyrrolizin-8-yl]methoxy]-1,3,5-triazin-2-yl]-1,4-oxazepane-6-carbonitrile] | 6.00 to 7.00 | – | > 8.00 | > 8.00 | – | 6.00 to 7.00
9 | N#Cc1c(N)sc2c1C1(CC2)CN(c2nc(NCc3ccn[nH]3)nc(OC[C@@]34CCCN3C[C@H](F)C4)n2)C1 [Compound 84, 2-amino-1′-[4-[[(2R,8S)-2-fluoro-1,2,3,5,6,7-hexahydropyrrolizin-8-yl]methoxy]-6-(1H-pyrazol-5-ylmethylamino)-1,3,5-triazin-2-yl]spiro[5,6-dihydrocyclopenta[b]thiophene-4,3′-azetidine]-3-carbonitrile] | 4.70 to 6.00 | ≤ 4.70 | 6.00 to 7.00 | 6.00 to 7.00 | – | –
10 | CN(C)CC1(COc2nc(N3CC4(C3)SCc3sc(N)c(C#N)c34)nc(N3C[C@@H](F)C[C@@](C)(O)C3)n2)CC1(F)F (stereo partly drawn) [Compound 153, 2-amino-1′-[4-[[1-[(dimethylamino)methyl]-2,2-difluoro-cyclopropyl]methoxy]-6-[(3R,5S)-5-fluoro-3-hydroxy-3-methyl-1-piperidyl]-1,3,5-triazin-2-yl]spiro[6H-thieno[3,4-b]thiophene-4,3′-azetidine]-3-carbonitrile] | > 8.00 | 7.00 to 8.00 | > 8.00 | > 8.00 | – | –
11 | CCN(c1nc(OC[C@@]23CCCN2C[C@H](F)C3)nc(N2CC3(C2)SCc2sc(N)c(C#N)c23)n1)[C@@H](C)c1cccnc1N [Compound 139B, 2-amino-1′-[4-[[(1*)-1-(2-amino-3-pyridyl)ethyl]-ethyl-amino]-6-[[(2R,8S)-2-fluoro-1,2,3,5,6,7-hexahydropyrrolizin-8-yl]methoxy]-1,3,5-triazin-2-yl]spiro[6H-thieno[3,4-b]thiophene-4,3′-azetidine]-3-carbonitrile] | 7.00 to 8.00 | 7.00 to 8.00 | > 8.00 | > 8.00 | – | –
12 | C[C@@]1(O)CCCN(c2nc(OC[C@@]34CCCN3C[C@H](F)C4)nc(N3CC4(C3)c3c(sc(N)c3C#N)CC4F)n2)C1 (stereo partly drawn) [Compound 71, 2-amino-5-fluoro-1′-[4-[[(2R,8S)-2-fluoro-1,2,3,5,6,7-hexahydropyrrolizin-8-yl]methoxy]-6-[(3R)-3-hydroxy-3-methyl-1-piperidyl]-1,3,5-triazin-2-yl]spiro[5,6-dihydrocyclopenta[b]thiophene-4,3′-azetidine]-3-carbonitrile] | 6.00 to 7.00 | 6.00 to 7.00 | 7.00 to 8.00 | > 8.00 | – | –
13 | CC(c1cccnc1N)N(CCO)c1nc(OC[C@@]23CCCN2C[C@H](F)C3)nc(N2CC3(CCc4sc(N)c(C#N)c43)C2)n1 (single isomer, unassigned) [Compound 122A, 2-amino-1′-[4-[[(1*)-1-(2-amino-3-pyridyl)ethyl]-(2-hydroxyethyl)amino]-6-[[(2R,8S)-2-fluoro-1,2,3,5,6,7-hexahydropyrrolizin-8-yl]methoxy]-1,3,5-triazin-2-yl]spiro[5,6-dihydrocyclopenta[b]thiophene-4,3′-azetidine]-3-carbonitrile] | > 8.00 | 7.00 to 8.00 | > 8.00 | > 8.00 | – | –
14 | C[C@H](c1cccnc1N)N(CC(F)F)c1nc(OC[C@@H]2CCCN2C)nc(N2CC3(C2)SCc2sc(N)c(C#N)c23)n1 [Compound 196, 2′-amino-1-(4-(((R)-1-(2-aminopyridin-3-yl)ethyl)(2,2-difluoroethyl)amino)-6-(((S)-1-methylpyrrolidin-2-yl)methoxy)-1,3,5-triazin-2-yl)-6′H-spiro[azetidine-3,4′-thieno[3,4-b]thiophene]-3′-carbonitrile] | 7.00 to 8.00 | > 8.00 | > 8.00 | > 8.00 | – | –
15 | CCN(c1nc(OC[C@@H]2CC[C@H]3CN(C)CCN23)nc(N2CC3(C2)SCc2sc(N)c(C#N)c23)n1)[C@H](C)c1cccnc1N (mixture of isomers) [Compound 219, 1′-[4-[[(6SR,8aSR)-2-methyl-3,4,6,7,8,8a-hexahydro-1H-pyrrolo[1,2-a]pyrazin-6-yl]methoxy]-6-[[(1R)-1-(2-amino-3-pyridyl)ethyl]-ethyl-amino]-1,3,5-triazin-2-yl]-2-amino-spiro[6H-thieno[3,4-b]thiophene-4,3′-azetidine]-3-carbonitrile] | 6.00 to 7.00 | 7.00 to 8.00 | > 8.00 | > 8.00 | – | –

Reference: patent US12421254B2, “KRAS modulators and uses thereof” (Quanta Therapeutics, Inc., priority 2023, dated 2025)
